Test results from US7410989B2, “Compounds, methods and compositions useful for the treatment of bovine viral diarrhea virus (BVDV) infection and hepatitis C virus (HCV) infection” (The University of North Carolina at Chapel Hill, priority 2001, dated 2008).
Counter-ions that a name gives are not always drawn.

What was measured:
BVDV = assay: Screening of antiviral compounds for anti-BVDV activity in MDBK cells; virus titre by immunoperoxidase monolayer assay; format: cell-based, bovine viral diarrhea virus; settings: for Day 3 Media TCID50/mL / Day 3 Media % Control / Day 7 Media TCID50/mL / Day 7 Media % Control: culture medium
Procedure: 2.0 cm^2 wells in a 24-well plate were seeded with 50 μl of medium from 12 ml of MEM-eq (minimum essential medium (MEM) with Earle's salts supplemented with 10% (v/v) equine serum, sodium bicarbonate (0.75 mg/ml), L-glutamine (0.29 mg/ml), penicillin G (100 U/ml), streptomycin (100 μg/ml), and amphotericin B (0.25 μg/ml)), which was derived by trypsinization of a confluent monolayer of Madin Darby Bovine Kidney (MDBK) cells in a 25 cm^2 flask. Cells were incubated at 38.5° C. with 5% CO2 for 24 hours. The average number of cells per well was determined and later used to calculate appropriate multiplicities of infection (MOI) of BVDV virus. […]
The inoculated cells incubated for one hour at 38.5° C. with 5% CO2 in humidified air. The medium was removed from the wells, and the cells washed one time with Ca^2+ and Mg^2+-free PBS comprising antiviral compound (12.5 μM) (cells in the wells not initially treated with antiviral compounds were washed without antiviral compound). […] Three days post-inoculation, medium was removed and stored at −20° C. for assay. […] Seven days post-inoculation, medium was removed and stored at −80° C. for serial dilution & assay.
The MDBK cells were resuspended in MEM-eq with no antiviral compound. Uterine tubal cells (UTC) were freeze-thawed and stored at −80° C. for analysis. UTC lysates were serially diluted with medium from Day 7 and assayed by immunoperoxidase for the presence of BVDV.
All samples were assayed for BVDV using the immunoperoxidase monolayer assay as described in A. Afshar et al., Can J Vet Res; 55:91-93 (1991). Samples were assayed in triplicate by adding 50 μL of MEM-eq containing approximately 2.5×10^3 MDBK cells to 50-μL of each sample supplemented with 50 μL of fresh MEM-eq in a 96-well culture plate. Plates were incubated for 72 h at 38.5° C. in a humidified atmosphere of 5% CO2 and air before the immunoperoxidase labeling technique was performed as follows:
After fixation, potentially infected cells were incubated with monoclonal antibodies D89 (M. L. Vickers et al., J Vet Diagn Invest 2, 300-302 (1990); Xue W et al., J Clin Microbiol 28, 1688-1693 […] specific for E2/gp53, a major envelope glycoprotein of BVDV (Xue W et al., Vet Microbiol 57, 105-118 (1997)) and 20.10.6 specific for NS3-p80, a conserved nonstructural protein (W. V. Corapi et al., Am J Vet Res 51, 1388-1394 (1990)). After washing with PBS and Tween 20 to remove unbound antibodies, peroxidase-conjugated rabbit anti-mouse IgG (Jackson Immuno Research Lab, West Grove, Pa.) was added. After a short incubation period, unbound peroxidase-conjugated antibody was removed by washing with PBS and Tween 20. Finally, the enzyme substrate, aminoethyl carbazole (Zymed Laboratories, Inc., South San Francisco, Calif.), which produces a reddish-brown color when oxidized by horseradish peroxidase, was added. Color change was visualized under light microscopy and compared to known positive and negative controls on each plate.
The tissue culture infective dose 50% (TCID50)/ml of the exposure aliquot was determined by the method of Reed and Muench (L. J. Reed and H. Muench, Am J Hygiene 27, 493-497 (1938). Results of viral detection assays were compared using a Pearson Chi-square test statistic (J. Sall and A. Lehman, JMP Start Statistics (Duxbury Press, Belmont, Calif. (1996), 195-211).

[1] = 12.5 μM compound, BVDV MOI 0.5, titre as % of no-antiviral control
[2] = compound at 0.2 μm, BVDV MOI 0.05
[3] = compound at 0.4 μm, BVDV MOI 0.05
[4] = compound at 0.7 μm, BVDV MOI 0.05
[5] = compound at 1.5 μm, BVDV MOI 0.05
[6] = compound at 3 μm, BVDV MOI 0.05
[7] = compound at 6 μm, BVDV MOI 0.05
[8] = compound at 12 μm, BVDV MOI 0.05
[9] = compound at 25 μm, BVDV MOI 0.05
[10] = 12.5 μM compound, BVDV MOI 0.05
[11] = 12.5 μM compound, BVDV MOI 0.05, titre as % of no-antiviral control
[12] = 12.5 μM compound, BVDV MOI 1.0, titre as % of no-antiviral control

## CC(C)NC(=N)c1ccc2[nH]c(-c3ccc(-c4ccc(N)cc4)o3)nc2c1 [DB 459, 2-[5(6)-N-isopropylamidino-2-benzimidazoyl]-5-(4-aminophenyl)furan]
BVDV; 12.5 μM compound, BVDV MOI 0.5
  Day 3 Cell Lysates TCID50/mL: 1.00E+02 TCID50/mL
  Day 3 Media TCID50/mL: Negative
BVDV; [1]
  Day 3 Cell Lysates % Control: 0.0016%

## Nc1ccc(-c2ccc(-c3nc4ccc(C5=NCCN5)cc4[nH]3)o2)cc1 [DB 456, 2-[5 (6)-{2-imidazolinyl}-2-benzimidazoyl]-5-(4-aminophenyl)furan]
BVDV; [2]
  Day 3 Cell Lysates % Control: 100.0000%
  Day 3 Cell Lysates TCID50/mL: 3.50E+05 TCID50/mL
  Day 3 Media % Control: 31.5000%
  Day 3 Media TCID50/mL: 6.30E+05 TCID50/mL
BVDV; [3]
  Day 3 Cell Lysates % Control: 1000.0000%
  Day 3 Cell Lysates TCID50/mL: 3.50E+06 TCID50/mL
  Day 3 Media % Control: 31.5000%
  Day 3 Media TCID50/mL: 6.30E+05 TCID50/mL
BVDV; [4]
  Day 3 Cell Lysates % Control: 1000.0000%
  Day 3 Cell Lysates TCID50/mL: 3.50E+06 TCID50/mL
  Day 3 Media % Control: 31.5000%
  Day 3 Media TCID50/mL: 6.30E+05 TCID50/mL
BVDV; [5]
  Day 3 Cell Lysates % Control: 1000.0000%
  Day 3 Cell Lysates TCID50/mL: 3.50E+06 TCID50/mL
  Day 3 Media % Control: 25.5000%
  Day 3 Media TCID50/mL: 5.10E+05 TCID50/mL
BVDV; [6]
  Day 3 Cell Lysates % Control: 177.1429%
  Day 3 Cell Lysates TCID50/mL: 6.20E+05 TCID50/mL
  Day 3 Media % Control: 17.5000%
  Day 3 Media TCID50/mL: 3.50E+05 TCID50/mL
BVDV; [7]
  Day 3 Cell Lysates % Control: 10.0000%
  Day 3 Cell Lysates TCID50/mL: 3.50E+04 TCID50/mL
  Day 3 Media % Control: 1.7500%
  Day 3 Media TCID50/mL: 3.50E+04 TCID50/mL
BVDV; [8]
  Day 3 Cell Lysates % Control: 1.0000%
  Day 3 Cell Lysates TCID50/mL: 3.50E+03 TCID50/mL
  Day 3 Media % Control: 0.0310%
  Day 3 Media TCID50/mL: 6.20E+02 TCID50/mL
BVDV; [9]
  Day 3 Cell Lysates % Control: 0.5714%
  Day 3 Cell Lysates TCID50/mL: 2.00E+03 TCID50/mL
  Day 3 Media % Control: 0.1750%
  Day 3 Media TCID50/mL: 3.50E+03 TCID50/mL

## CC(C)NC(=N)c1ccc2[nH]c(-c3ccc(-c4ccc([N+](=O)[O-])cc4)o3)nc2c1 [DB 458, 2-[5 (6)-{N-isopropylamidino}-2-benzimidazoyl]-5-(4-nitrophenyl)furan]
BVDV; 12.5 μM compound, BVDV MOI 0.5
  Day 3 Cell Lysates TCID50/mL: Negative
  Day 3 Media TCID50/mL: Negative

## Cc1cc(NC(=N)N)ccc1-c1ccc(-c2ccc(NC(=N)N)cc2C)s1 [DB 752]
BVDV; 12.5 μM compound, BVDV MOI 0.5
  Day 3 Cell Lysates TCID50/mL: 6.20E+02 TCID50/mL
  Day 3 Media TCID50/mL: Negative
BVDV; [1]
  Day 3 Cell Lysates % Control: 0.01%

## N=C(N)Nc1ccc(-c2ccc(-c3ccc(NC(=N)N)cc3C(F)(F)F)o2)c(C(F)(F)F)c1 [DB 701]
BVDV; 12.5 μM compound, BVDV MOI 0.5
  Day 3 Cell Lysates TCID50/mL: 3.50E+04 TCID50/mL
  Day 3 Media TCID50/mL: 6.20E+03 TCID50/mL
BVDV; [1]
  Day 3 Cell Lysates % Control: 0.5645%
  Day 3 Media % Control: 0.1771%

## COc1cc(NC(=N)N)ccc1-c1ccc(-c2ccc(NC(=N)N)cc2OC)o1 [DB 711]
BVDV; 12.5 μM compound, BVDV MOI 0.5
  Day 3 Cell Lysates TCID50/mL: 2.00E+07 TCID50/mL
  Day 3 Media TCID50/mL: 2.40E+05 TCID50/mL
BVDV; [1]
  Day 3 Cell Lysates % Control: 322.5806%
  Day 3 Media % Control: 6.8571%

## Cc1cc(NC(=N)N)ccc1-c1ccc(-c2ccc(NC(=N)N)cc2C)o1.Cl.Cl
other
  melting point: 265 to 271 °C (dec.)

## O=[N+]([O-])c1ccc(-c2ccc(-c3nc4ccc(C5=NCCN5)cc4[nH]3)o2)cc1 (as salt: salt) [DB 457, 2-[5 (6)-{2-imidazolinyl}-2-benzimidazoyl]-5-(4-nitrophenyl)furan]
other
  melting point: > 300 °C

## N=C(N)Nc1ccc(-c2ccc(-c3ccc(NC(=N)N)cc3Cl)o2)c(Cl)c1 [DB 708]
BVDV; 12.5 μM compound, BVDV MOI 0.5
  Day 3 Cell Lysates TCID50/mL: Negative
  Day 3 Media TCID50/mL: Negative

## Cl.Cl.N=C(N)Nc1ccc(-c2ccc(-c3ccc(NC(=N)N)cc3Cl)o2)c(Cl)c1
other
  melting point: 300 to 304 °C (dec.)

## N=C(N)c1ccc(-c2ccc(-c3cccc(C(=N)N)c3)[nH]2)cc1 [DB619]
BVDV; [10]
  Day 7 Cell Lysates TCID50/mL: 1.10E+06 TCID50/mL
  Day 3 Media TCID50/mL: 3.50E+02 TCID50/mL
  Day 7 Media TCID50/mL: 2.00E+05 TCID50/mL
BVDV; [11]
  Day 7 Cell Lysates % Control: 55.00%
  Day 3 Media % Control: 0.18%
  Day 7 Media % Control: 38.46%
BVDV; 12.5 μM compound, BVDV MOI 1.0
  Day 7 Cell Lysates TCID50/mL: 3.50E+05 TCID50/mL
  Day 3 Media TCID50/mL: 6.20E+04 TCID50/mL
  Day 7 Media TCID50/mL: 3.50E+04 TCID50/mL
BVDV; [12]
  Day 7 Cell Lysates % Control: 56.45%
  Day 3 Media % Control: 17.71%
  Day 7 Media % Control: 100.00%

## N=C(N)Nc1ccc(-c2ccc(-c3cccc(NC(=N)N)c3)o2)cc1 [DB 705]
BVDV; 12.5 μM compound, BVDV MOI 0.5
  Day 3 Cell Lysates TCID50/mL: Negative
  Day 3 Media TCID50/mL: Negative

## Nc1ccc(-c2ccc(-c3nc4ccc(C5=NCCN5)cc4[nH]3)o2)cc1 (as salt: salt) [DB 456, 2-[5 (6)-{2-imidazolinyl}-2-benzimidazoyl]-5-(4-aminophenyl)furan]
other
  melting point: > 300 °C

## O=[N+]([O-])c1ccc(-c2ccc(-c3nc4ccc(C5=NCCN5)cc4[nH]3)o2)cc1 [DB 457, 2-[5 (6)-{2-imidazolinyl}-2-benzimidazoyl]-5-(4-nitrophenyl)furan]
BVDV; 12.5 μM compound, BVDV MOI 0.5
  Day 3 Cell Lysates TCID50/mL: 3.50E+02 TCID50/mL
  Day 3 Media TCID50/mL: 1.00E+02 TCID50/mL
BVDV; [1]
  Day 3 Cell Lysates % Control: 0.0056%
  Day 3 Media % Control: 0.0029%

## N=C(N)Nc1ccc(-c2ccc(-c3ccc(NC(=N)N)cc3)o2)cc1 [DB673]
BVDV; [10]
  Day 7 Cell Lysates TCID50/mL: 3.50E+04 TCID50/mL
  Day 3 Media TCID50/mL: 1.00E+02 TCID50/mL
  Day 7 Media TCID50/mL: 6.20E+03 TCID50/mL
BVDV; [11]
  Day 7 Cell Lysates % Control: 1.75%
  Day 3 Media % Control: 0.05%
  Day 7 Media % Control: 1.19%
BVDV; 12.5 μM compound, BVDV MOI 1.0
  Day 7 Cell Lysates TCID50/mL: 2.70E+05 TCID50/mL
  Day 3 Media TCID50/mL: 3.50E+02 TCID50/mL
  Day 7 Media TCID50/mL: 2.00E+05 TCID50/mL
BVDV; [12]
  Day 7 Cell Lysates % Control: 43.55%
  Day 3 Media % Control: 0.10%
  Day 7 Media % Control: 571.43%

## COc1ccc(-c2ccc(-c3ccc(C4=NCCN4)cc3)o2)cc1 [DB 606]
BVDV; 12.5 μM compound, BVDV MOI 0.5
  Day 3 Cell Lysates TCID50/mL: Negative
  Day 3 Media TCID50/mL: Negative

## Cc1cc(NC(=N)N)ccc1-c1ccc(-c2ccc(NC(=N)N)cc2C)o1 [DB 680]
BVDV; 12.5 μM compound, BVDV MOI 0.5
  Day 3 Cell Lysates TCID50/mL: Negative
  Day 3 Media TCID50/mL: Negative
